Assay results as given in US11207301B2, “Sphingosine 1 phosphate receptor agonists for neuroprotection” (RECEPTOS LLC, priority 2017, dated 2021).

Tests used:
Assay type in all cases: cell-based
[1] = tested on: AKT phosphorylation in primary rat astrocytes; experiment: AKT phosphorylation in primary rat astrocytes (MSD pAKT assay); conditions: 10-minute exposure, mean of n=4
Method: (§1) For the experiments using rat primary astrocytes, eight-point concentration-response curves were generated for AKT and ERK phosphorylation in primary rat astrocytes cultures in response to a 10-minute treatment with ozanimod (100 nM-46 pM), Compound 3 (10 nM-5 pM), Compound 1 (10 nM-5 pM), or FTY720-P (10 nM-5 pM). Phosphorylation of AKT and ERK was quantified using Meso Scale Discovery assay kits (MSD Mutli-Spot Phopho-AKT (Ser473) Assay Kit and MSD Multi-Spot MAP Kinase Phosphoprotein Assay Whole Cell Lysate Kit) and imaging platform. AKT and ERK phosphorylation within treated astrocytes were assessed as the mean change in signal intensity compared to DMSO vehicle and the half maximal effective concentration (EC50) was determined using non-linear regression.
(§2) Embryonic day18 (E18) rat cortices were purchased from BrainBits LLC. (Springfield, Ill.) and were cultured according to the supplier's protocol. Briefly, cortices were incubated at 37° C. for 10 minutes in activated papain solution before trituration in hibernation medium containing B27 supplement using a modified siliconized glass Pasteur pipette. The cell suspension was centrifuged at 1100×g for 1 minute at room temperature (RT). The cell pellet was then resuspended in NbAstro medium (BrainBits LLC.) and the live cell density was assessed using a cell counter. Primary cells were plated at a density of 7500 cells/cm2 in T75 tissue culture flasks coated with poly-D-lysine (PDL) in a total volume of 12 mL of NbAstro media, and incubated for 10-14 days at 37° C. 5% CO2. After 10-14 days, primary astrocytes in passage 0 (P0) that had reached confluency in the T75 flasks were detached using TrypLE detachment reagent, pelleted at 300×g, and plated into poly-d-lysine coated T225 flasks in 20 mL of NbAstro media, and incubated for another 7 days at 37° C. 5% CO2. After 7 days, primary P1 astrocytes in confluent T225 flasks were detached using TrypLE detachment reagent, pelleted at 300×g, and plated intopoly-d-lysine coated 96-well plates at 10,000 cells per well in 200 μL of NbAstro media, and incubated for 7 days at 37° C. 5% CO2. After 7 days, P2 primary astrocytes were utilized for pAKT and pERK assays.
(§3) The pAKT (phosphorylated AKT) assay was performed according to the manufacturer's protocol. Briefly, MSD pAKT plates were blocked for 1-2 hours by adding 150 μL of blocker A prepared in 1× Tris wash buffer. […] Following antibody incubation, plates were washed three times with 150 μL of 1× Tris wash buffer and 1× read buffer (150 μL/well) was added. Finally, plates were read in the MSD imager platform to assess pAKT levels.
(§4) AKT and ERK phosphorylation data were analyzed by non-linear regression (GraphPad Prism, version 6) to determine the EC50 values.

[2] = tested on: ERK phosphorylation in primary mouse astrocytes; experiment: ERK phosphorylation in primary mouse cortical astrocytes (AlphaLISA SureFire Ultra); conditions: 10-minute exposure
Method: (§5) For the experiments using mouse and human primary astrocytes, ten-point concentration-response curves (90 nM-4.57 pM or 30 nM-1.52 pM) were generated for AKT and/or ERK phosphorylation in primary human and mouse cortical astrocytic cultures in response to a 10-minute treatment with ozanimod, Compound 3, Compound 1, or FTY720-P. AKT and ERK phosphorylation were quantified using AlphaLISA SureFire Ultra Assay kits and the EnVision Plate Reader. AKT and ERK phosphorylation within treated astrocytes were expressed as the mean change in signal intensity compared to the dimethyl sulfoxide (DMSO) vehicle and the half maximal effective concentration (EC50) was determined using non-linear regression.
Timed pregnant (E16) C57BL/6J female mice arrive to the test facility on a weekly basis and were housed and cared for according to appropriate protocols for this model. Primary mouse cortical astrocytes are harvested from P0-P2 pups. The newly born animals were deeply anesthetized on ice, decapitated, and the brains were rapidly removed and stored in ice-cold NbAstro media (BrainBits, LLC). Cells were dissociated from freshly dissected cortices by mechanical disruption in the presence of trypsin and DNase. Cells were put into a PDL coated T75 tissue culture flask containing 16 mL NbAstro Media and incubated at 37° C. 5% CO2. Once the mouse astrocytes had reached confluency in the T75 flask, they were detached using TripLE detachment reagent, pelleted at 300×g, expanded into two T225 PDL coated tissue culture flasks containing 40 mL of NbAstro and incubated at 37° C. 5% CO2. […]
Cell lysis and detection of pERK were performed according to the PerkinElmer AlphaLISA SureFire Ultra p-ERK1/2 (Thr202/TYR 204) assay protocol. […] The plates were read on the EnVision Plate Reader to assess the pERK levels.
(§6) The AKT and ERK phosphorylation data, collected by a Perkin Elmer EnVision Microplate Reader, was analyzed by non-linear regression (GraphPad Prism, version 7.03) to determine the EC50 values.

[3] = tested on: ERK phosphorylation in primary rat astrocytes; experiment: ERK phosphorylation in primary rat astrocytes (MSD pERK assay); conditions: 10-minute exposure, mean of n=3
Method: as §1, §2
as §3, with “The pERK” for “The pAKT”, “(phosphorylated ERK)/pMAPkinase” for “(phosphorylated AKT)”, “MSD pERK/pMAPkinase” for “MSD pAKT”, “Finally, the” for “Finally,”, “assess the pERK” for “assess pAKT”
as §4

[4] = tested on: ERK phosphorylation in primary human astrocytes; experiment: ERK phosphorylation in primary human cortical astrocytes (AlphaLISA SureFire Ultra); conditions: 10-minute exposure, n=3-5
Method: as §5
Primary human astrocytes were purchased from ScienCell Research Laboratories, Inc. and cultured according to the supplier's protocol. The astrocytes were obtained from the human cerebral cortex, cryopreserved at passage one, and delivered frozen. The frozen vials of cells were gently thawed in a 37° C. water bath. Once the contents of the vial were completely thawed, the cell solution was dispensed into a poly-L-lysine (PLL) coated T75 tissue culture flask with 16 mL of human Astrocyte Media, (ScienCell Research Laboratories, Inc.) and incubated at 37° C. 5% CO2. Once the human astrocytes had reached confluency in the T75 flask, they were detached using trypsin/EDTA 0.25%, pelleted at 300×g, split into two PLL coated T225 tissue culture flasks in 40 mL of astrocyte media, and incubated at 37° C. 5% CO2. Once the astrocytes reached confluency in the T225 flasks, they were detached using trypsin/EDTA 0.25% solution, pelleted at 300×g, plated into poly-D-lysine (PDL) coated 96-well plates at a density of 10,000 cells per well in 200 μL human Astrocyte Media, and incubated at 37° C. 5% CO2. Half of the media was replenished every 3-4 days. After 5-7 days of incubation, the P2 human astrocyte plates were utilized for the pERK and pAKT assays.
(§7) Cell lysis and detection of pERK were performed according to the PerkinElmer AlphaLISA SureFire Ultra p-ERK1/2 (Thr202/TYR 204) assay protocol. Astrocytes were lysed in the 96-well plate following a 10 minute incubation with compounds with shaking at RT. The astrocytic lysates (10 μL/well) were transferred into a 384-well OptiPlate. As specified by the assay protocol, an acceptor bead mix and a donor bead mix (5 μL/well for each) were added to the plate under subdued light. Plates were sealed with adhesive plate seals and incubated in the dark for 2 hours at RT. The plates were read on the EnVision Plate Reader to assess the pERK levels.
as §6

[5] = tested on: AKT phosphorylation in primary mouse astrocytes; experiment: AKT phosphorylation in primary mouse cortical astrocytes (AlphaLISA SureFire Ultra); conditions: 10-minute exposure, mean of n=3
Method: as §5
Timed pregnant (E16) C57BL/6J female mice arrive to the test facility on a weekly basis and were housed and cared for according to appropriate protocols for this model. Primary mouse cortical astrocytes are harvested from P0-P2 pups. The newly born animals were deeply anesthetized on ice, decapitated, and the brains were rapidly removed and stored in ice-cold NbAstro media (BrainBits, LLC). Cells were dissociated from freshly dissected cortices by mechanical disruption in the presence of trypsin and DNase. Cells were put into a PDL coated T75 tissue culture flask containing 16 mL NbAstro Media and incubated at 37° C. 5% CO2. Once the mouse astrocytes had reached confluency in the T75 flask, they were detached using TripLE detachment reagent, pelleted at 300×g, expanded into two T225 PDL coated tissue culture flasks containing 40 mL of NbAstro and incubated at 37° C. 5% CO2. Once the astrocytes reached confluency in the T225 flasks they were detached using TrypLE detachment reagent, pelleted at 300×g, plated into PDL coated 96-well plates at a density of 10,000 cells per well in 200 μL NbAstro and incubated at 37° C. 5% CO2. Half of the media was replenished every 3-4 days. After 5-7 days of incubation, the P2 mouse astrocyte plates were utilized for the pERK and pAKT assays.
as §7, with “pAKT” for “pERK”, “pAKT1/2/3 ([…])” for “p-ERK1/2 (Thr202/TYR 204)”, “room temperature (RT).” for “RT.”, “Plates were sealed with adhesive plate seals and incubated in the dark for 2 hours at RT.” left out
as §6

EC50 [1]: 0.17 nM
EC50 [2]: 0.14 nM
EC50 [3]: 0.16 nM
EC50 [4]: 0.73 nM
EC50 [5]: 0.09 nM
Compound: CCCCCCCCc1ccc(CC[C@](N)(CO)COP(=O)(O)O)cc1 [FTY720-P, reference compound]
